Measurements published in US9206165B2, “Tetrazolo hydrazine derivatives and pharmaceutical composition comprising same as active ingredient for preventing or treating cancer” (INDUSTRY-ACADEMIC COOPERATION FOUNDATION, YEUNGNAM …, priority 2012, dated 2015).

Tests used:
[1] = system: breast cancer marker genes in MDA-MB-231 cells; assay: Gene expression analysis by real time RT-PCR in MDA-MB-231 cells; format: cell-based, human; conditions: mRNA
Protocol: (§1) To investigate the various effects of various cell lines, the expression levels of different breast cancer marker genes were tested after treating the compounds.
(§2) Total RNA was extracted from the cells using Trizol™ reagent, stored in diethylpyrocarbonate-treated water at −80° C. until use. Total 2 μg of RNA was used for cDNA synthesis. All the primer used in examples of the present invention were designed with Primer 3 software (http://frodo.wi.mit.edu) using sequence information listed at NCBI. Following conditions were applied for the RT-PCR: pre-denaturation of the synthesized cDNA at 95° C. for 10 min followed by 40 cycles of denaturation at 95° C. for 33 s, annealing at each gene-specific primer Tm (° C.), and extension at 72° C. for 33 s. 1.2% of the agarose gel electrophoresis were used to verify the purity of the amplified genes.

[2] = system: MCF-7, MDA-Mb-231 and Zr-75 cell lines; assay: In vitro anti-cancer activity in human breast cancer cell lines, MTT (statements pooled over the three lines); format: cell-based; conditions: 1×10^−5, 1×10^−6 and 1×10^−7 M, 48 h
Protocol: (§3) Anti-cancer activities of the compounds f1-f15 on human breast cancer cell line were tested in ER positive (MCF-7) and […] cell lines. The human breast cancer cell lines MCF-7 and MDA-MB-231 were cultured in Dulbecco's Modified Eagle's Medium (DMEM) supplemented with 10% fetal bovine serum (FBS) (HyClone Laboratories, Logan, Utah, USA) and 1% penicillin: streptomycin (Invitrogen, Carlsbad, Calif., USA) in 12 well plates. The test compounds f1-f15 were dissolved in DMSO and one microliter of the stock solution was used per milliliter of the culture to make a working concentration1 1×10^−5, 1×10^−6 and 1×10^−7 M. Each test includes control wells. The cell suspension was diluted to 1×10^4 cells/mL by adding fresh medium, and 1 mL of this suspension was added to the test and control wells. The plates were incubated at 37° C. under CO2 for 24 h. After incubation, the culture media was changed and cells were treated with […] of stock solution. Cells were incubated at 37° C. under CO2 for 48 h. The growth of the cells was checked with a low power microscope and MTT assay was used to confirm the viability. In the similar experiments, the ZR-75 cells were grown in RPMI 1640 (HyClone Laboratories, Logan, Utah, USA) supplemented with 10% fetal bovine serum (FBS) (HyClone Laboratories, Logan, Utah, USA) and 1% penicillin: streptomycin (Invitrogen, Carlsbad, Calif., USA).
(§4) The results for each compound are reported as percent growth (GP %) of treated cells compared to untreated controls. The inhibitory effects were detectable in compounds 2, 8, 10, 12 and 14 among the compounds f1-f15. […] The percent growth inhibition of compounds varied not only with the substituent groups but also with the nature of the cell line.

[3] = system: breast cancer marker genes in MCF-7 cells; assay: Gene expression analysis by real time RT-PCR in MCF-7 cells; format: cell-based, human; conditions: mRNA
Protocol: as §1, §2

MDA-MB-231 cell line = assay: In vitro anti-cancer activity, MTT, MDA-MB-231; format: cell-based, human; conditions: ER negative MDA-MB-231; FIG. 2
Protocol: as §3, with “In the similar experiments, the ZR-75 cells were grown in RPMI 1640 (HyClone Laboratories, Logan, Utah, USA) supplemented with 10% fetal bovine serum (FBS) (HyClone Laboratories, Logan, Utah, USA) and 1% penicillin: streptomycin (Invitrogen, Carlsbad, Calif., USA).” left out

ZR-75 cell line = assay: In vitro anti-cancer activity, MTT, ZR-75; format: cell-based, human; conditions: ER negative ZR-75; FIG. 2
Protocol: as §3, with “In the similar experiments, the ZR-75 cells were grown in RPMI 1640 (HyClone Laboratories, Logan, Utah, USA) supplemented with 10% fetal bovine serum (FBS) (HyClone Laboratories, Logan, Utah, USA) and 1% penicillin: streptomycin (Invitrogen, Carlsbad, Calif., USA).” left out

MCF-7 cells = assay: In vitro anti-cancer activity, MTT, MCF-7; format: cell-based, human; conditions: ER positive MCF-7; FIG. 2
Protocol: as §3, §4

| SMILES | melting point | expression of BRAC-1 ([1]; FIG. 4) | anti-proliferative activity / inhibitory effects ([2]; FIG. 2) | expression of BAX ([3]; FIG. 3) | expression of CD44 ([3]; FIG. 3) | other results |
| --- | --- | --- | --- | --- | --- | --- |
| O=C(Cn1nnnc1-c1ccc2c(c1)OCO2)NN=Cc1ccccc1Cl [f2, 2-[5-(1,3-benzodioxol-5-yl)-1H-tetrazol-1-yl]-N′-[(2-chlorophenyl)methylidene]acetohydrazide] | 198 to 200 °C | a minimum of two folds decrease | excellent anti-proliferative activity | increased more than two fold | increased | anti-proliferative activity / inhibitory effects ([2]; FIG. 2, listed as 2): detectable |
| O=C(Cn1nnnc1-c1ccc2c(c1)OCO2)NN=Cc1ccccc1 [f5, 2-[5-(1,3-benzodioxol-5-yl)-1H-tetrazol-1yl]-N′-[phenylmethylidene]acetohydrazide] | 204 to 206 °C |  |  |  |  |  |
| CCOc1ccccc1C=NNC(=O)Cn1nnnc1-c1ccc2c(c1)OCO2 [f7, 2-[5-(1,3-benzodioxol-5-yl)-1H-tetrazol-1-yl]-N′-[(2-ethoxyphenyl)methylidene]acetohydrazide] | 196 to 198 °C |  |  |  |  |  |
| COc1ccc(C=NNC(=O)Cn2nnnc2-c2ccc3c(c2)OCO3)cc1OC [f8, 2-[5-(1,3-benzodioxol-5-yl)-1H-tetrazol-1-yl]-N′-[(3,4-dimethoxyphenyl)methylidene]acetohydrazide] | 200 to 202 °C | a minimum of two folds decrease | excellent anti-proliferative activity | increased more than two fold | increased | expression of BRAC-1 ([1]; FIG. 4, listed as 8): highly suppressed; anti-proliferative effects in MDA-MB-231 (MDA-MB-231 cell line): more anti-proliferative effects; anti-proliferative effects in ZR-75 (ZR-75 cell line): more anti-proliferative effects; anti-proliferative activity / inhibitory effects ([2]; FIG. 2, listed as 8): detectable; expression of CD44 ([3]; FIG. 3, listed as 8): increased about two fold |
| O=C(Cn1nnnc1-c1ccc2c(c1)OCO2)NN=Cc1ccccc1[N+](=O)[O-] [f10, 2-[5-(1,3-benzodioxol-5-yl)-1H-tetrazol-1yl]-N′-[(2-nitrophenyl)methylidene]acetohydrazide] | 210 to 212 °C | a minimum of two folds decrease | excellent anti-proliferative activity | increased more than two fold | increased | anti-proliferative effects on MCF-7 cells growth (MCF-7 cells): more anti-proliferative effects; anti-proliferative activity / inhibitory effects ([2]; FIG. 2, listed as 10): detectable; expression of CD44 ([3]; FIG. 3, listed as 10): increased about two fold |
| O=C(Cn1nnnc1-c1ccc2c(c1)OCO2)NN=Cc1cccc([N+](=O)[O-])c1 [f12, 2-[5-(1,3-benzodioxol-5-yl)-1H-tetrazol-1yl]-N′-[(3-nitrophenyl)methylidene]acetohydrazide] | 208 to 210 °C | a minimum of two folds decrease | excellent anti-proliferative activity | increased more than two fold | increased | anti-proliferative effects on MCF-7 cells growth (MCF-7 cells): more anti-proliferative effects; anti-proliferative activity / inhibitory effects ([2]; FIG. 2, listed as 12): detectable |
| O=C(Cn1nnnc1-c1ccc2c(c1)OCO2)NN=Cc1ccco1 [f13, 2-[5-(1,3-benzodioxol-5-yl)-1H-tetrazol-1-yl]-N′-[furan-2-ylmethylidene]acetohydrazide] | 212 to 214 °C |  |  |  |  |  |

Now from value to compound, other results behind:

| melting point | SMILES | expression of BRAC-1 ([1]; FIG. 4) | anti-proliferative activity / inhibitory effects ([2]; FIG. 2) | expression of BAX ([3]; FIG. 3) | expression of CD44 ([3]; FIG. 3) | other results |
| --- | --- | --- | --- | --- | --- | --- |
| 206 to 208 °C | O=C(Cn1nnnc1-c1ccc2c(c1)OCO2)NN=Cc1ccc(Cl)cc1 [f1, 2-[5-(1,3-benzodioxol-5-yl)-1H-tetrazol-1-yl]-N′-[4-chlorophenyl-methylidene]acetohydrazide] |  |  |  |  |  |
| 208 to 210 °C | CCOc1ccc(C=NNC(=O)Cn2nnnc2-c2ccc3c(c2)OCO3)cc1 [f3, 2-[5-(1,3-benzodioxol-5-yl)-1H-tetrazol-1-yl]-N′-[(4-ethoxyphenyl)methylidene]acetohydrazide] |  |  |  |  |  |
| 198 to 200 °C | COc1ccc(C=NNC(=O)Cn2nnnc2-c2ccc3c(c2)OCO3)cc1 [f4, 2-[5-(1,3-benzodioxol-5-yl)-1H-tetrazol-1-yl]-N′-[(4-methoxyphenyl)methylidene]acetohydrazide] |  |  |  |  |  |
| 203 to 205 °C | Cc1ccc(C=NNC(=O)Cn2nnnc2-c2ccc3c(c2)OCO3)cc1 [f6, 2-[5-(1,3-benzodioxol-5-yl)-1H-tetrazol-1-yl]-N′-[(4-methylphenyl)methylidene]acetohydrazide] |  |  |  |  |  |
| 200 to 202 °C | CCc1ccc(C=NNC(=O)Cn2nnnc2-c2ccc3c(c2)OCO3)cc1 [f11, 2-[5-(1,3-benzodioxol-5-yl)-1H-tetrazol-1-yl]-N′-[(4-ethylphenyl)methylidene]acetohydrazide] |  |  |  |  |  |
| 204 to 206 °C | O=C(Cn1nnnc1-c1ccc2c(c1)OCO2)N/N=C/c1ccc([N+](=O)[O-])cc1 [f14, 2-[5-(1,3-benzodioxol-5-yl)-1H-tetrazol-1-yl]-N′-[(E)-(4-nitrophenyl)methylidene]acetohydrazide] | a minimum of two folds decrease | excellent anti-proliferative activity | increased more than two fold | increased | anti-proliferative effects on MCF-7 cells growth (MCF-7 cells): more anti-proliferative effects; anti-proliferative activity / inhibitory effects ([2]; FIG. 2, listed as 14): detectable |
